According to the supplement of paper PMC8671470:

system: HL-60; experiment: cell viability (% survival relative to DMSO control, bortezomib = 0%); higher = less cytotoxic; settings: 1 nM; 72 h
How it was run: (§1)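 Fifteen myeloid leukaemia cell lines were exposed to compounds at 1, 10, 100, 1000 or 10000 nM in 384-well plates for 72 h at 37 °C and 5% CO2. Viability was read by CellTiter-Glo luminescence and normalised, with vehicle as 100% and a 10 µM positive control as 0%. Values are percent survival averaged over duplicates.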

| SMILES | cell viability |
| --- | --- |
| CCOC(=O)c1sc(NC(=O)c2ccco2)c(SC#N)c1C [CBR-5884] | 103% |
| O=C(/C=C/c1ccc(O)c(O)c1)OCCc1ccccc1 [Caffeic acid phenethyl ester] | 96.3% |
| CCCCCOC(=O)Nc1nc(=O)n([C@@H]2O[C@H](C)[C@@H](O)[C@H]2O)cc1F [Capecitabine] | 104% |
| Cc1ccc(-c2cc(C(F)(F)F)nn2-c2ccc(S(N)(=O)=O)cc2)cc1 [Celecoxib] | 99.2% |
| O=c1c(-c2ccc(O)cc2)coc2cc(O[C@@H]3O[C@H](CO)[C@@H](O)[C@H](O)[C@H]3O)ccc12 [Daidzin] | 107% |
| CCN(CC)C(=S)SSC(=S)N(CC)CC [Disulfiram] | 100% |
| c1cc(-c2cnn3cc(-c4ccc(OCCN5CCCCC5)cc4)cnc23)ccn1 [Dorsomorphin] | 113% |
| C[C@H]1c2cccc(O)c2C(=O)C2C(=O)[C@]3(O)C(=O)C(C(N)=O)C(=O)[C@@H](N(C)C)[C@@H]3[C@@H](O)[C@@H]21 (stereo not given in full) [Doxycycline] | 123% |

same assay, conditions: 10 nM; 72 h

| SMILES | cell viability |
| --- | --- |
| Cc1c(Cl)cccc1S(=O)(=O)Nc1nc(CC(=O)N2CCN(C)CC2)cs1 [BVT-2733] | 93.4% |
| CCc1oc2ccccc2c1C(=O)c1cc(Br)c(O)c(Br)c1 [Benzbromarone] | 88.1% |
| CCOC(=O)c1sc(NC(=O)c2ccco2)c(SC#N)c1C [CBR-5884] | 102% |
| O=C(/C=C/c1ccc(O)c(O)c1)OCCc1ccccc1 [Caffeic acid phenethyl ester] | 111% |
| CCCCCOC(=O)Nc1nc(=O)n([C@@H]2O[C@H](C)[C@@H](O)[C@H]2O)cc1F [Capecitabine] | 85.2% |
| Cc1ccc(-c2cc(C(F)(F)F)nn2-c2ccc(S(N)(=O)=O)cc2)cc1 [Celecoxib] | 103% |
| O=c1c(-c2ccc(O)cc2)coc2cc(O[C@@H]3O[C@H](CO)[C@@H](O)[C@H](O)[C@H]3O)ccc12 [Daidzin] | 99.6% |
| CCN(CC)C(=S)SSC(=S)N(CC)CC [Disulfiram] | 104% |
| c1cc(-c2cnn3cc(-c4ccc(OCCN5CCCCC5)cc4)cnc23)ccn1 [Dorsomorphin] | 110% |
| C[C@H]1c2cccc(O)c2C(=O)C2C(=O)[C@]3(O)C(=O)C(C(N)=O)C(=O)[C@@H](N(C)C)[C@@H]3[C@@H](O)[C@@H]21 (stereo not given in full) [Doxycycline] | 100% |

same assay, conditions: 100 nM; 72 h

| SMILES | cell viability |
| --- | --- |
| Cc1c(Cl)cccc1S(=O)(=O)Nc1nc(CC(=O)N2CCN(C)CC2)cs1 [BVT-2733] | 78.9% |
| CCc1oc2ccccc2c1C(=O)c1cc(Br)c(O)c(Br)c1 [Benzbromarone] | 136% |
| CCOC(=O)c1sc(NC(=O)c2ccco2)c(SC#N)c1C [CBR-5884] | 89.5% |
| O=C(/C=C/c1ccc(O)c(O)c1)OCCc1ccccc1 [Caffeic acid phenethyl ester] | 92.2% |
| CCCCCOC(=O)Nc1nc(=O)n([C@@H]2O[C@H](C)[C@@H](O)[C@H]2O)cc1F [Capecitabine] | 109% |
| Cc1ccc(-c2cc(C(F)(F)F)nn2-c2ccc(S(N)(=O)=O)cc2)cc1 [Celecoxib] | 84.5% |
| O=c1c(-c2ccc(O)cc2)coc2cc(O[C@@H]3O[C@H](CO)[C@@H](O)[C@H](O)[C@H]3O)ccc12 [Daidzin] | 100% |
| CCN(CC)C(=S)SSC(=S)N(CC)CC [Disulfiram] | 89.2% |
| c1cc(-c2cnn3cc(-c4ccc(OCCN5CCCCC5)cc4)cnc23)ccn1 [Dorsomorphin] | 94.9% |
| C[C@H]1c2cccc(O)c2C(=O)C2C(=O)[C@]3(O)C(=O)C(C(N)=O)C(=O)[C@@H](N(C)C)[C@@H]3[C@@H](O)[C@@H]21 (stereo not given in full) [Doxycycline] | 118% |

same assay, conditions: 1000 nM; 72 h

| SMILES | cell viability |
| --- | --- |
| Cc1c(Cl)cccc1S(=O)(=O)Nc1nc(CC(=O)N2CCN(C)CC2)cs1 [BVT-2733] | 122% |
| CCc1oc2ccccc2c1C(=O)c1cc(Br)c(O)c(Br)c1 [Benzbromarone] | 94.1% |
| CCOC(=O)c1sc(NC(=O)c2ccco2)c(SC#N)c1C [CBR-5884] | 92.7% |
| O=C(/C=C/c1ccc(O)c(O)c1)OCCc1ccccc1 [Caffeic acid phenethyl ester] | 56.7% |
| CCCCCOC(=O)Nc1nc(=O)n([C@@H]2O[C@H](C)[C@@H](O)[C@H]2O)cc1F [Capecitabine] | 101% |
| Cc1ccc(-c2cc(C(F)(F)F)nn2-c2ccc(S(N)(=O)=O)cc2)cc1 [Celecoxib] | 188% |
| O=c1c(-c2ccc(O)cc2)coc2cc(O[C@@H]3O[C@H](CO)[C@@H](O)[C@H](O)[C@H]3O)ccc12 [Daidzin] | 93.9% |
| CCN(CC)C(=S)SSC(=S)N(CC)CC [Disulfiram] | 83.3% |
| c1cc(-c2cnn3cc(-c4ccc(OCCN5CCCCC5)cc4)cnc23)ccn1 [Dorsomorphin] | 97.1% |
| C[C@H]1c2cccc(O)c2C(=O)C2C(=O)[C@]3(O)C(=O)C(C(N)=O)C(=O)[C@@H](N(C)C)[C@@H]3[C@@H](O)[C@@H]21 (stereo not given in full) [Doxycycline] | 111% |

same assay, conditions: 10000 nM; 72 h

| SMILES | cell viability |
| --- | --- |
| Cc1c(Cl)cccc1S(=O)(=O)Nc1nc(CC(=O)N2CCN(C)CC2)cs1 [BVT-2733] | 93.5% |
| CCc1oc2ccccc2c1C(=O)c1cc(Br)c(O)c(Br)c1 [Benzbromarone] | 104% |
| CCOC(=O)c1sc(NC(=O)c2ccco2)c(SC#N)c1C [CBR-5884] | 59.4% |
| O=C(/C=C/c1ccc(O)c(O)c1)OCCc1ccccc1 [Caffeic acid phenethyl ester] | 16.2% |
| CCCCCOC(=O)Nc1nc(=O)n([C@@H]2O[C@H](C)[C@@H](O)[C@H]2O)cc1F [Capecitabine] | 72% |
| Cc1ccc(-c2cc(C(F)(F)F)nn2-c2ccc(S(N)(=O)=O)cc2)cc1 [Celecoxib] | 124% |
| O=c1c(-c2ccc(O)cc2)coc2cc(O[C@@H]3O[C@H](CO)[C@@H](O)[C@H](O)[C@H]3O)ccc12 [Daidzin] | 92.7% |
| CCN(CC)C(=S)SSC(=S)N(CC)CC [Disulfiram] | 93.7% |
| c1cc(-c2cnn3cc(-c4ccc(OCCN5CCCCC5)cc4)cnc23)ccn1 [Dorsomorphin] | 93.9% |
| C[C@H]1c2cccc(O)c2C(=O)C2C(=O)[C@]3(O)C(=O)C(C(N)=O)C(=O)[C@@H](N(C)C)[C@@H]3[C@@H](O)[C@@H]21 (stereo not given in full) [Doxycycline] | 67.4% |

system: THP-1; experiment: as above; settings: 1 nM; 72 h
How it was run: as §1

| SMILES | cell viability |
| --- | --- |
| Cc1c(Cl)cccc1S(=O)(=O)Nc1nc(CC(=O)N2CCN(C)CC2)cs1 [BVT-2733] | 107% |
| CCc1oc2ccccc2c1C(=O)c1cc(Br)c(O)c(Br)c1 [Benzbromarone] | 105% |
| CCOC(=O)c1sc(NC(=O)c2ccco2)c(SC#N)c1C [CBR-5884] | 102% |
| O=C(/C=C/c1ccc(O)c(O)c1)OCCc1ccccc1 [Caffeic acid phenethyl ester] | 92.7% |
| CCCCCOC(=O)Nc1nc(=O)n([C@@H]2O[C@H](C)[C@@H](O)[C@H]2O)cc1F [Capecitabine] | 102% |
| Cc1ccc(-c2cc(C(F)(F)F)nn2-c2ccc(S(N)(=O)=O)cc2)cc1 [Celecoxib] | 105% |
| O=c1c(-c2ccc(O)cc2)coc2cc(O[C@@H]3O[C@H](CO)[C@@H](O)[C@H](O)[C@H]3O)ccc12 [Daidzin] | 97.8% |
| CCN(CC)C(=S)SSC(=S)N(CC)CC [Disulfiram] | 94.5% |
| c1cc(-c2cnn3cc(-c4ccc(OCCN5CCCCC5)cc4)cnc23)ccn1 [Dorsomorphin] | 94.5% |
| C[C@H]1c2cccc(O)c2C(=O)C2C(=O)[C@]3(O)C(=O)C(C(N)=O)C(=O)[C@@H](N(C)C)[C@@H]3[C@@H](O)[C@@H]21 (stereo not given in full) [Doxycycline] | 95% |

same assay, conditions: 10 nM; 72 h

| SMILES | cell viability |
| --- | --- |
| Cc1c(Cl)cccc1S(=O)(=O)Nc1nc(CC(=O)N2CCN(C)CC2)cs1 [BVT-2733] | 91% |
| CCc1oc2ccccc2c1C(=O)c1cc(Br)c(O)c(Br)c1 [Benzbromarone] | 95.7% |
